# According to paper PMC6288471 (Frontiers in Veterinary Science, 2018):
# “Also recorded” adds a separate entry of the source. Where two headings read alike, the source gives them in different places.
# Experiments:
# platelets = conditions: PRP spiked ex vivo with concentrations similar to 44 to 74 ng/mL, data not shown
# [1] = Pharmacokinetics of apixaban after oral and intravenous administration; plasma concentrations by UPLC-MS, two-compartment model; assay type: in vivo; conditions: horses; for half-life / clearance / Vd: iv
# Method: The first and last treatments for each horse were IV administration of drug or placebo (Figure 1). […] Investigators were blinded to each treatment until the conclusion of the study.
# Blood samples were collected before drug administration (time 0) and at 3 (IV) or 15 (PO) min, then at 30, 45 min, 1, 2, 3, 4, 6, 8, and 24 h after drug administration into 6-mL syringes (Monoject Syringe, Covidien Ltd, Mansfield, MA, USA) prefilled with 3.8% citrate anticoagulant (Sigma-Aldrich, St Louis, MO, USA) maintaining a ratio of 9:1 blood:citrate. The citrate-anticoagulated blood was used to prepare platelet-poor plasma (PPP) for measurement of UPLC-MS concentrations, anti-Xa activities and dilute prothrombin times (dPT) and platelet-rich plasma (PRP) for flow cytometric analysis of ex vivo platelet activation in response to exposure to EHV-1. Blood was also collected into EDTA- and non-anticoagulant samples for clinical pathologic testing before and 24 h after each treatment (Figure 1). With the exception of 24 h samples, blood was collected at each time point through an indwelling jugular catheter (14 G × 15 cm, Milacath®, MILA International, Florence, KY, USA) after removing 20–30 mL of blood. Patency of the catheters was maintained by flushes with sterile saline solution (0.9% sodium chloride injection USP, Baxter Healthcare Corporation, Deerfield, IL, USA) after each blood draw. The catheter was removed after collection of the 8 h sample. For IV administration, a second catheter was placed in the opposite jugular vein for bolus drug delivery and removed immediately after drug administration and flushing of the catheter with sterile saline. For the 24 h sample, blood was collected from the jugular vein (the vein contralateral to that used for the indwelling catheter) into a 3.8% citrate anticoagulant prefilled 6-mL syringe via an 18 G needle (Monoject Veterinary Needle, Covidien Ltd, Mansfield, MA, USA) and into EDTA- and non-anticoagulant vacutainers (Becton-Dickinson, Franklin Lakes, NJ, USA) via a vacutainer needle (21 G, Becton-Dickinson Eclipse™ Vacutainer® with pre-attached holder).
# This was performed as previously described ([33]). Analysis by UPLC-MS/MS was performed on a 2D UPLC system (Waters Acquity UPLC H-class with 2D Technology System, Waters GmbH, Eschborn, Germany) directly coupled to a Xevo TQ-S tandem mass spectrometer (Waters GmbH, Eschborn, Germany) which was operated in electrospray positive ionization mode. The system control and data acquisition were performed using MassLynx NT 4.1 software with automated data processing by the MassLynx QuanLynx program provided with the instrument. The lower limit of detection for all DOACs of the UPLC-MS/MS method was < 0.2 ng/mL. Since DOAC values < 7 ng/ml were not clinically relevant, all time points below this value were considered zero.
# Pharmacokinetic analysis was performed using a two-compartment open model with weighting of 1/y^2 (Phoenix®, WinNonlin® software, Certara Inc., St. Louis, Missouri).
# Secondary parameters calculated include distribution (α) and elimination (β) half-lives (T½), microdistribution rate constants, area-under-the-curve (AUC), apparent volume of distribution at steady-state (VSS), systemic clearance (CL), and mean residence time (MRT).
# [2] = target: T1, bovine activated Factor X (Bos taurus, UniProt P00743); assay: Apixaban-calibrated chromogenic anti-Xa activity assay in platelet-poor plasma of dosed horses; assay type: in vivo, horse; conditions: for Anti-Xa activity (ng/mL), median (range): PO 0.2 mg/kg
# T1 construct: purchased Diagnostica Stago STA®-Liquid anti-Xa
# T1 sequence (P00743 234-492 limits assumed): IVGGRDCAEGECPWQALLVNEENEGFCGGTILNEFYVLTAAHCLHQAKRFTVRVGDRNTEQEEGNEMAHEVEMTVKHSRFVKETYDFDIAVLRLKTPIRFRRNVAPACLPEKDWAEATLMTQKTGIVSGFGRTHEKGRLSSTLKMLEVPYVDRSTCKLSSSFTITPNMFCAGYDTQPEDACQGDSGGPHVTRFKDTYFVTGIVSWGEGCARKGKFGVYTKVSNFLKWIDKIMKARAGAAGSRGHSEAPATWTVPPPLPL
# T1 sequence (P00743 41-180 limits assumed): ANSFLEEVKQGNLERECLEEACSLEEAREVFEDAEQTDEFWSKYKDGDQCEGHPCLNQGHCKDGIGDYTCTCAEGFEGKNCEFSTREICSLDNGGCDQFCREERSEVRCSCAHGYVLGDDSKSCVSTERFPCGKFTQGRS
# Method: The PPP was harvested from the supernatant of PRP after high-speed centrifugation (13,000 × g, Accuspin Micro, Thermo Scientific, Rockford, IL, USA) for 5 min. The PPP was frozen at −20°C and assays were performed in batches. The PPP was thawed at 37°C in a water bath before analysis with an automated coagulation analyzer (STA® Compact, Diagnostica Stago, Parsipanny, NJ, USA). The assay is configured with a bovine activated Factor X reagent added in excess to the test plasma and a chromogenic substrate of Factor Xa (STA®-Liquid anti-Xa, Diagnostica Stago). In this assay, residual, uninhibited Factor Xa cleaves the chromogenic substrate such that the inverse of the color change in the reaction mixture is proportional to the drug concentration in the test plasma.
# [3] = rabbits, cited from earlier work
# [4] = Clinical observation for adverse effects / safety testing of a trial IV dose; assay type: in vivo, horses
# Method: The paste was transferred to a 60 mL syringe (Becton-Dickinson) and stored at room temperature until administration. For IV formulation, crushed tablets were dissolved in a vehicle consisting of 10% v/v N,N-dimethylacetamide (EMD Millipore, Billerica, MA, USA), 17% v/v propylene glycol (Sigma-Aldrich), 17% v/v dimethyl sulfoxide (DMSO, Sigma-Aldrich), and 56% v/v deionized water (MilliQ® water, Q-Pod®, EMD Millipore). After vigorous vortexing, the formulation was sterile filtered through a […] cellulose acetate filter (Corning Inc., Corning, NY, USA) then drawn into 60 mL syringes. The IV formulation was prepared 24 h before administration and stored at room temperature. […] To ensure that the vehicle was not toxic, safety testing was performed on a trial IV dose given to a different horse.
# Some individual horses had test results that were slightly above or below the established reference intervals, but this likely represented normal biological variability. […] Again, we attributed this to normal biological variation.
# [5] = chimpanzees; cited from earlier work
# P-glycoprotein = conditions: cited from earlier work
# [6] = single oral dose 0.2 mg/kg, 0.2 mg/kg
smiles,measurement,setting,value
COc1ccc(-n2nc(C(N)=O)c3c2C(=O)N(c2ccc(N4CCCCC4=O)cc2)CC3)cc1 [apixaban],inhibition of platelet activation in spiked equine PRP,platelets,did not see any inhibition
same,half-life,"[1]; horse, plasma, IV administration, read-out: elimination half-life (converted)",1.3 ± 0.2 h
same,clearance,"[1]; horse, plasma, IV administration, read-out: rate of clearance (converted)",2.53 mL/min/kg
same,Vd,"[1]; horse, plasma, IV administration, read-out: volume of distribution (VDSS)",0.0933 ± 0.0756 L/kg
same,Tmax,"[1]; horse, plasma, IV administration, read-out: time of peak plasma concentration (converted)",3 min
same,volume of distribution (VDSS),[1]; IV administration,~ 90 mL/kg
same,time by which plasma apixaban decreased to undetectable levels,"[1]; IV administration, all horses",≤ 8 h
same,apixaban in plasma after oral administration (UPLC-MS),[1]; [6],no detectable apixaban in plasma; also recorded: not detected in plasma
same,oral absorption,[1]; [6],not orally absorbed
same,clearance,"[1]; plasma, single IV dose […], read-out: CL (systemic clearance), geometric mean (converted)",2.45 mL/min/kg
same,clearance,"[1]; plasma, single IV dose […], read-out: CL (systemic clearance), mean (converted)",2.53 mL/min/kg
same,Vd,"[1]; plasma, single IV dose […], read-out: VC (apparent volume of distribution for central compartment), geometric mean",0.0164 L/kg
same,Vd,"[1]; plasma, single IV dose […], read-out: VC (apparent volume of distribution for central compartment), mean",0.0201 L/kg
same,Vd,"[1]; plasma, single IV dose […], read-out: VSS (volume of distribution at steady-state), geometric mean",0.0718 L/kg
same,Vd,"[1]; plasma, single IV dose […], read-out: VSS (volume of distribution at steady-state), mean",0.0933 L/kg
same,half-life,"[1]; plasma, single IV dose […], read-out: t½β (half-life of the elimination phase), geometric mean (converted)",1.27 h
same,half-life,"[1]; plasma, single IV dose […], read-out: t½β (half-life of the elimination phase), mean (converted)",1.28 h
same,"Anti-Xa activity (ng/mL), median (range)",[2]; 15 min,7.4 (5.9–9.4) ng/mL
same,"Anti-Xa activity (ng/mL), median (range)",[2]; 30 min,7.5 (6.8–12.5) ng/mL
same,"Anti-Xa activity (ng/mL), median (range)",[2]; 45 min,9.9 (8.4–10.1) ng/mL
same,"Anti-Xa activity (ng/mL), median (range)",[2]; 1 h,10.9 (8.4–17) ng/mL
same,"Anti-Xa activity (ng/mL), median (range)",[2]; 2 h,9.7 (7.4–14.8) ng/mL
same,"Anti-Xa activity (ng/mL), median (range)",[2]; 4 h,9.3 (3.8–12) ng/mL
same,"Anti-Xa activity (ng/mL), median (range)",[2]; 6 h,10.7 (6.3–13.8) ng/mL
same,"Anti-Xa activity (ng/mL), median (range)",[2]; 24 h,7.6 (0–8.3) ng/mL
same,change in anti-Xa activity,[2]; oral dosing of apixaban,No change
same,half-life,[3]; 2.5 mg/kg IV dose,0.6 h
same,oral absorption,[3]; 10 mg/kg,3%
same,clinically apparent adverse effects,"[4]; horses, oral and IV formulations",no clinically apparent adverse effects
same,changes in clinical pathologic test results,"[4]; trial IV dose in a different horse, 24 h after IV bolus",no changes
same,adverse clinical reactions,[4]; trial IV dose of dissolved apixaban in a different horse,no adverse clinical reactions
same,availability after oral administration,[5],50%
same,P-glycoprotein substrate,P-glycoprotein,substrate
